# Test results reported in US9399123B2, “Silicone adhesive compositions” (Momentive Performance Materials Inc., priority 2012, dated 2016).
# Assay: DSC of drug crystals in adhesive (heat of melting, solid drug fraction)
# Assay type: physicochemical
# Experimental: To further study the interaction, the drug containing samples were analyzed via DSC using a TA Instruments Differential Scanning Calorimeter. The ionic silicone and PDMS-based samples containing ibuprofen, as well as pure drug were heated from room temperature to 200° C. at a rate of 5° C./min. The drug melting point, Tm was identified at 77° C. […] This evidence of differential interactions could explain the difference in ibuprofen release through these systems (FIGS. 5(b) and (c)).
# The difference in drug compatibility with the ionic silicone adhesive vis-á-vis the PDMS adhesive was determined via DSC as described in Example 12 above. The free drug, and drug loaded PDMS and ionic silicone adhesive were subjected to a heating and cooling cycle under air atmosphere. The DSC thermograms are show in FIG. 9(b).
# To quantify the result and the difference in compatibility, the areas were calculated as normalized heat of melting of drug crystals present in the formulation. The values were attributed to the solid fraction of distinct drug crystals present in the formulation, and the following results were obtained: […]
smiles,measurement,setting,value
C[C@]12CC[C@H]3[C@@H](CCC4=CC(=O)CC[C@@]43C)[C@@H]1CC[C@@H]2O [Testosterone],Heat of Melting,"DSC, normalized heat of melting of drug crystals",73 J/gm
same,% Solid drug fraction,from heat of melting relative to free testosterone (100% assigned),100%
